The source of these data is US20250179000A1 (Sanford Burnham Prebys Medical Discovery Institute, priority 2021, published 2025).

The structures appear in SMILES notation.

What all share (assay type): cell-based
One experiment concerns the target T1, Rat mGlu3 (Rattus norvegicus, UniProt P31422).
T1 construct: expressed in transfected cells; host or cells: HEK-293 co-expressing GIRK channels
As to the kind of experiment: mGlu receptor in vitro assay (thallium flux through GIRK channels / calcium assay), rat mGlu3. The settings on record: PAM potency with EC20 glutamate. In short, it runs like this:
(§1)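 HEK-293 cells co-expressing rat mGlu2 or mGlu3 and GIRK, dye-loaded with FluoZin2-AM, compound added about 2.5 min before thallium buffer with EC20 glutamate; potency from the 5-15 s fluorescence slope, 10-point 4-parameter fit. Calcium assay at mGlu3 used TREx293 mGlu3 Gα15 cells induced with tetracycline 20 ng/mL for 20 h.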

The next experiment concerns the target Human mGlu2 (Homo sapiens, UniProt Q14416). As to the kind of experiment: mGlu receptor in vitro assay, human mGlu2.
The next experiment concerns the target Human mGlu3 (Homo sapiens, UniProt Q14832). The experiment can be described thus: mGlu receptor in vitro assay, human mGlu3. The protocol: Human Embryonic Kidney (HEK-293) cell lines co-expressing rat mGlu receptors 2, 3, 4, 6, 7 or 8 and G protein-coupled inwardly-rectifying potassium (GIRK) channels were grown in Growth Media containing 45% DMEM, 45% F-12, 10% FBS, 20 mM HEPES, 2 mM L-glutamine, antibiotic/antimycotic, non-essential amino acids, 700 μg/mL G418, and 0.6 μg/ml puromycin at 37° C. in the presence of 5% CO2. […] All cell culture reagents were purchased from Invitrogen Corp. (Carlsbad, CA) unless otherwise noted. Calcium assays were used to assess activity of compounds at mGlu1 and mGlu5, as previously described in Engers et al (J. Med. Chem. 2009, 52, 4115-4118). Calcium assays at mGlu3 were performed as described for mGlu5 with the exception that TREx293 mGlu3 Gα15 cells were treated with tetracycline at 20 ng/mL for 20 h prior to assay.
Briefly, cells were plated into 384-well, black-walled, clear-bottomed poly-D-lysine-coated plates at a density of 15,000 cells/20 μL/well in DMEM containing 10% dialyzed FBS, 20 mM HEPES, and 100 units/mL penicillin/streptomycin (assay media). Plated cells were incubated overnight at 37° C. in the presence of 5% CO2. The following day, the medium was exchanged from the cells to assay buffer [Hanks' balanced salt solution (Invitrogen) containing 20 mM HEPES, pH 7.3] using an ELX405 microplate washer (BioTek), leaving 20 μL/well, followed by the addition of 20 μL/well FluoZin2-AM (330 nM final concentration) indicator dye (Invitrogen; prepared as a stock in DMSO and mixed in a 1:1 ratio with Pluronic acid F-127) in assay buffer. Cells were incubated for 1 h at room temperature, and the dye exchanged to assay buffer using an ELX405, leaving 20 μL/well. Test compounds were diluted to 2 times their final desired concentration in assay buffer (0.3% DMSO final concentration). Agonists were diluted in thallium buffer [125 mM sodium bicarbonate (added fresh the morning of the experiment), 1 mM magnesium sulfate, 1.8 mM calcium sulfate, 5 mM glucose, 12 mM thallium sulfate, and 10 mM HEPES, pH 7.3] at 5 times the final concentration to be assayed. Cell plates and compound plates were loaded onto a kinetic imaging plate reader (FDSS 6000 or 7000; Hamamatsu Corporation, Bridgewater, NJ). Appropriate baseline readings were taken (10 images at 1 Hz; excitation, 470±20 nm; emission, 540±30 nm) and test compounds were added in a 20 μL volume and incubated for approximately 2.5 min before the addition of 10 μL of thallium buffer with or without agonist. After the addition of agonist, data were collected for approximately an additional 2.5 min. Data were analyzed using Excel (Microsoft Corp, Redmond, WA). The slope of the fluorescence increase beginning 5 s after thallium/agonist addition and ending 15 s after thallium/agonist addition was calculated, corrected to vehicle and maximal agonist control slope values, and plotted in using either XLfit (ID Business Solutions Ltd) or Prism software (GraphPad Software, San Diego, CA) to generate concentration-response curves. Potencies were calculated from fits using a four-point parameter logistic equation. For concentration-response curve experiments, compounds were serially diluted 1:3 into 10-point concentration response curves and were transferred to daughter plates using an Echo acoustic plate reformatter (Labcyte, Sunnyvale, CA). Test compounds were applied and followed by EC20 concentrations of glutamate.

For a further experiment, the target named is T2, Rat mGlu2 (Rattus norvegicus, UniProt P31421).
T2 construct: expressed in transfected cells; host or cells: HEK-293 co-expressing GIRK channels
The experiment can be described thus: mGlu receptor in vitro assay, thallium flux through GIRK channels, rat mGlu2. The following applies: PAM potency with EC20 glutamate. In short, it runs like this:
as §1

Human mGlu3, sequence (Q14832 23-879): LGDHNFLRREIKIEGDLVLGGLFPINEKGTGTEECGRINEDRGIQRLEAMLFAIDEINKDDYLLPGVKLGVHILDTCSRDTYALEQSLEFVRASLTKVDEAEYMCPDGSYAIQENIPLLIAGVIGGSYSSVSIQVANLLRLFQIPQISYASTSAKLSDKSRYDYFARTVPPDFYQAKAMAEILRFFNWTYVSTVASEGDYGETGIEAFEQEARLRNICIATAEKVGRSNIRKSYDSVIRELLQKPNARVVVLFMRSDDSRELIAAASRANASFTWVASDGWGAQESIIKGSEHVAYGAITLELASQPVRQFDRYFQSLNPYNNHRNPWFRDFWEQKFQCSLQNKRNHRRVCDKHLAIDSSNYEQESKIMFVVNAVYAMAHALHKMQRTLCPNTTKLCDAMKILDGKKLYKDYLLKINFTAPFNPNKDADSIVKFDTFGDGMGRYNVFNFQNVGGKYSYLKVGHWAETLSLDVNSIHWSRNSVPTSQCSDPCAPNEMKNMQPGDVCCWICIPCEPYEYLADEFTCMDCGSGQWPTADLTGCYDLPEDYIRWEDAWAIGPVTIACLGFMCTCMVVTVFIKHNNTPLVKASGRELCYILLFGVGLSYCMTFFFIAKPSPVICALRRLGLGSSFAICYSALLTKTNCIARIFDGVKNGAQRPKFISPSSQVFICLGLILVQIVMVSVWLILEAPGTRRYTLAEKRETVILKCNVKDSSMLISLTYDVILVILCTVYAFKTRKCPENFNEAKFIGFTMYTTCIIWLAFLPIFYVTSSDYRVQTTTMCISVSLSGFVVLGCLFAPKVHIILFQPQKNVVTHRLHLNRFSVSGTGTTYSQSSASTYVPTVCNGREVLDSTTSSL
T1 sequence (P31422 23-879): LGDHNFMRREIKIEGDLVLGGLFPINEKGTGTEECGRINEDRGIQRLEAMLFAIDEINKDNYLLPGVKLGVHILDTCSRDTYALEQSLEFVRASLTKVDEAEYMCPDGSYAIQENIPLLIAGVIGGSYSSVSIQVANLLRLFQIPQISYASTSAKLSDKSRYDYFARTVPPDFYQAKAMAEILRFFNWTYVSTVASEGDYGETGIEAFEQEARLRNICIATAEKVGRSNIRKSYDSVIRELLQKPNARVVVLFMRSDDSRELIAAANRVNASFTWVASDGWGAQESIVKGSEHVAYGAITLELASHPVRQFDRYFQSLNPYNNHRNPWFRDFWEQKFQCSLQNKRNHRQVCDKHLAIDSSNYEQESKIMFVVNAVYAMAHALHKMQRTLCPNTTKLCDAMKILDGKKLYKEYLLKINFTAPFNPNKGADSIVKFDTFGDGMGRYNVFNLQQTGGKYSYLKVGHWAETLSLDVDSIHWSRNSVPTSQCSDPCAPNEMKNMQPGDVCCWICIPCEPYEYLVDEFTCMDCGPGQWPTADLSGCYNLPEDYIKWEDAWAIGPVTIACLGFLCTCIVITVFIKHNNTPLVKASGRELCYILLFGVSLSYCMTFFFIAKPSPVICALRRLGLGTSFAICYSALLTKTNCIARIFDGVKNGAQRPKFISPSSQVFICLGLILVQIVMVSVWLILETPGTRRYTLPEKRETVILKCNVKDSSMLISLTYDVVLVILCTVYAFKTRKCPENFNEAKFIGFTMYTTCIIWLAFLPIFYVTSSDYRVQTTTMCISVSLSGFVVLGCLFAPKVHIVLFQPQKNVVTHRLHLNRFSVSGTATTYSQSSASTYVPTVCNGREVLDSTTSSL
Human mGlu2, sequence (Q14416 19-872): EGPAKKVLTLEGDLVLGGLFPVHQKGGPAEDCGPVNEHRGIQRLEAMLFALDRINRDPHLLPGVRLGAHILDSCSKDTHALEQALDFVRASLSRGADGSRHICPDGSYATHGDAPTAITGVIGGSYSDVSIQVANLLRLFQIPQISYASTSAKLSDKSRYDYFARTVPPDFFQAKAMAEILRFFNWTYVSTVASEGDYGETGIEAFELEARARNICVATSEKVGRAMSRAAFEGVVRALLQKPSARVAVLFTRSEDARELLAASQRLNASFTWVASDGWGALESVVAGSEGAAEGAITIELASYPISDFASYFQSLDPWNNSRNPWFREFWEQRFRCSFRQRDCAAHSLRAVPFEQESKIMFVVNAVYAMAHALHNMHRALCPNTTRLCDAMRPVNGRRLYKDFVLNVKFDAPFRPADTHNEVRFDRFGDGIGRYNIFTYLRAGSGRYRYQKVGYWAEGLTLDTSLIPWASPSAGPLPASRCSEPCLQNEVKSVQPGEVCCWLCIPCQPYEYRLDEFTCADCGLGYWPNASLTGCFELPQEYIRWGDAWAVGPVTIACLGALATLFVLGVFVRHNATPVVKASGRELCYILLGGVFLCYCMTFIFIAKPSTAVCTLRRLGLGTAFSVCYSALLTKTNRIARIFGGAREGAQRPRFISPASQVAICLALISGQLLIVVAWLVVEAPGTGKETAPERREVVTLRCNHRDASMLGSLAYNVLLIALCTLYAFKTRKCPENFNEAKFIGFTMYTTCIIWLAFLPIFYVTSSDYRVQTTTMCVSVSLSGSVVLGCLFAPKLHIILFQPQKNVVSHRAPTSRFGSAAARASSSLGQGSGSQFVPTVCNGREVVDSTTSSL
T2 sequence (P31421 19-872): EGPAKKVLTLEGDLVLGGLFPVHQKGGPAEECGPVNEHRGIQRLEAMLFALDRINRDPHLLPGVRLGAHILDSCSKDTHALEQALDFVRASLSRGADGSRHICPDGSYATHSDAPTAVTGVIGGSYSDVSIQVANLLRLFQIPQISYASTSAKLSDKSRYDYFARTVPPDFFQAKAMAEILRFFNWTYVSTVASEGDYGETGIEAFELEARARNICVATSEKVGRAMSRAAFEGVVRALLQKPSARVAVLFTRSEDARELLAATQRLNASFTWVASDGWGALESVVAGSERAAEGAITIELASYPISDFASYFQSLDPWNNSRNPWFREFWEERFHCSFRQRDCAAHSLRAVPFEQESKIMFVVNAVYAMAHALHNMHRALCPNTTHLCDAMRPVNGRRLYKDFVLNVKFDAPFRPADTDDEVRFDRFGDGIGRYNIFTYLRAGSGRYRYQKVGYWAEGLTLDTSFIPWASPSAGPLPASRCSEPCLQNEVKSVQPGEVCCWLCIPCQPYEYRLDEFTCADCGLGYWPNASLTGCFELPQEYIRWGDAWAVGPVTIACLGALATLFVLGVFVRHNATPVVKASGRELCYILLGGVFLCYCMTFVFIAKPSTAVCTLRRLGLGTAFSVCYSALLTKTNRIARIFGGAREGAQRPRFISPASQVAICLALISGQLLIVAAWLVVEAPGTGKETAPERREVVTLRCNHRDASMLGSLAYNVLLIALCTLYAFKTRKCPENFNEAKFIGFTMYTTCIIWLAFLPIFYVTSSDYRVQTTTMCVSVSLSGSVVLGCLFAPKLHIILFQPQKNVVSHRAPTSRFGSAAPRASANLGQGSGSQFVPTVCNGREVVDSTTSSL

The EC50 is the concentration giving half of the maximal effect. With `COc1ccc(C(=O)O)cc1C#CCCCOc1ccc(C(=O)CC(C)(C)C)c(O)c1C` [Example 2, 3-(5-(4-(3,3-Dimethylbutanoyl)-3-hydroxy-2-methylphenoxy)pent-1-yn-1-yl)-4-methoxybenzoic acid], the EC50 on Rat mGlu3 is 91 nM; at Human mGlu2 it was 144 nM; on Human mGlu3, 79 nM; on Rat mGlu2 it was 456 nM.

With `COc1ccc(C(=O)O)cc1OC/C=C/COc1ccc(C(=O)CC(C)(C)C)c(O)c1C` [Example 4, (E)-3-((4-(4-(3,3-Dimethylbutanoyl)-3-hydroxy-2-methylphenoxy)but-2-en-1-yl)oxy)-4-methoxybenzoic acid], the EC50 on Rat mGlu3 was determined as 47 nM; at Human mGlu2, 56 nM; at Human mGlu3, 61 nM; at Rat mGlu2, 67 nM.

As to `CCCC(=O)c1ccc(OCCOCCOc2ccc(C(=O)O)cc2OC)c(C)c1O` [Example 5, 4-(2-(2-(4-Butyryl-3-hydroxy-2-methylphenoxy)ethoxy)ethoxy)-3-methoxybenzoic acid], the EC50 at Rat mGlu3 is greater than 10000 nM; on Human mGlu2, 26 nM; on Human mGlu3 it was greater than 10000 nM; at Rat mGlu2, 27 nM.

Regarding `CCCC(=O)c1ccc(OCCOCCOc2cccc(C(=O)O)c2C)c(C)c1O` [Example 7, 3-(2-(2-(4-Butyryl-3-hydroxy-2-methylphenoxy)ethoxy)ethoxy)-2-methylbenzoic acid], the EC50 is greater than 30000 nM at Rat mGlu3, 116 nM on Human mGlu2, greater than 10000 nM on Human mGlu3 and 158 nM at Rat mGlu2.

For `CCCC(=O)c1ccc(OC/C=C/COc2cccc(C(=O)O)c2C)c(C)c1O` [Example 8, (E)-3-((4-(4-Butyryl-3-hydroxy-2-methylphenoxy)but-2-en-1-yl)oxy)-2-methylbenzoic acid], the EC50 turned out to be 489 nM at Rat mGlu3, 10 nM on Human mGlu2, 534 nM at Human mGlu3 and 19 nM at Rat mGlu2.

On to `CCCC(=O)c1ccc(OCCOCCNc2cccc(C(=O)O)c2)c(C)c1O` [Example 9, 3-({2-[2-(4-Butanoyl-3-hydroxy-2-methylphenoxy)ethoxy]ethyl}amino)benzoic acid], for which the half-maximal effective concentration (EC50) at Rat mGlu3 was greater than 10000 nM; on Human mGlu2 it was 50 nM; at Human mGlu3, greater than 10000 nM; at Rat mGlu2, 73 nM.

With `Cc1c(OCc2cnc(-c3ccc(C(=O)O)s3)cn2)ccc(C(=O)CC(C)(C)C)c1O` [compound 141, 5-(5-((4-(3,3-Dimethylbutanoyl)-3-hydroxy-2-methylphenoxy)methyl)pyrazin-2-yl)thiophene-2-carboxylic acid], the EC50 on Human mGlu2 is 547 nM; at Human mGlu3, 603 nM.

Regarding `Cc1c(OCc2cnc(-c3ccc(C(=O)O)cc3Cl)cn2)ccc(C(=O)CC(C)(C)C)c1O` [compound 143, 3-Chloro-4-(5-((4-(3,3-Dimethylbutanoyl)-3-hydroxy-2-methylphenoxy)methyl)pyrazin-2-yl)benzoic acid], the EC50 was determined as 291 nM at Human mGlu2 and 580 nM on Human mGlu3.

`Cc1cc(C(=O)O)ccc1-c1cnc(COc2ccc(C(=O)CC(C)(C)C)c(O)c2C)cn1` [compound 144, 4-(5-{[4-(3,3-Dimethylbutanoyl)-3-hydroxy-2-methylphenoxy]methyl}pyrazin-2-yl)-3-methylbenzoic acid]: the 50% effective concentration (EC50) on Human mGlu2 amounted to 112 nM; on Human mGlu3 it was 89 nM.

Turning to `Cc1c(OCc2cnc(-c3cccc(O)c3)cn2)ccc(C(=O)CC(C)(C)C)c1O` [compound 145, 1-(2-Hydroxy-4-{[5-(3-hydroxyphenyl)pyrazin-2-yl]methoxy}-3-methylphenyl)-3,3-dimethylbutan-1-one], the EC50 at Human mGlu2 and on Human mGlu3 was greater than 10000 nM throughout.

Turning to `COc1c(C(=O)O)cccc1-c1cnc(COc2ccc3c(c2C)OC(C)(C)CC3=O)cn1` [compound 147, 2-Methoxy-3-(5-(((2,2,8-trimethyl-4-oxochroman-7-yl)oxy)methyl)pyrazin-2-yl)benzoic acid], the EC50 at Human mGlu2 and on Human mGlu3 was greater than 30000 nM in each case.

For the compound `Cc1c(OCc2cnc(-c3cncc(C(=O)O)c3)cn2)ccc(C(=O)CC(C)(C)C)c1O` [compound 148, 5-(5-((4-(3,3-Dimethylbutanoyl)-3-hydroxy-2-methylphenoxy)methyl)pyrazin-2-yl)nicotinic acid], the EC50 is greater than 10000 nM on Human mGlu2 and greater than 30000 nM at Human mGlu3.

In the case of `COc1ccc(C(=O)O)c(-c2cnc(COc3ccc(C#CCO)c(C)c3C)cn2)c1` [compound 150], the EC50 on Human mGlu2 is greater than 10000 nM; on Human mGlu3, greater than 30000 nM.

As to `COc1ccc(C(=O)O)c(-c2cnc(COc3ccc(C#CCOCC(O)CO)c(C)c3C)cn2)c1` (stereo not drawn) [compound 151], the EC50 at Human mGlu2 and on Human mGlu3 was greater than 30000 nM throughout.

As for `COc1c(C(=O)O)cccc1-c1ccc(COc2ccc(C(=O)CC(C)(C)C)c(O)c2C)nc1` [compound 152, 3-(6-((4-(3,3-Dimethylbutanoyl)-3-hydroxy-2-methylphenoxy)methyl)pyridin-3-yl)-2-methoxybenzoic acid], the figures for the EC50 at Human mGlu2 and on Human mGlu3 were 130 nM and 74 nM, respectively.

Turning to `COc1c(C(=O)O)cccc1-c1ccc(COc2ccc(C(=O)CC(C)(C)C)c(O)c2C)cn1` [compound 153, 3-(5-((4-(3,3-Dimethylbutanoyl)-3-hydroxy-2-methylphenoxy)methyl)pyridin-2-yl)-2-methoxybenzoic acid], the EC50 at Human mGlu2 turned out to be 69 nM; on Human mGlu3 it was 133 nM.

Regarding `COc1c(C(=O)O)cccc1-c1ccc(COc2ccc(C(=O)CC(C)(C)C)c(O)c2C)nn1` [compound 154, 3-(6-((4-(3,3-Dimethylbutanoyl)-3-hydroxy-2-methylphenoxy)methyl)pyridazin-3-yl)-2-methoxybenzoic acid], the EC50 at Human mGlu2 is 281 nM; at Human mGlu3 it was 184 nM.

`COc1ccc(C(=O)O)cc1-c1noc(COc2ccc(C(=O)CC(C)(C)C)c(O)c2C)n1` [compound 156, 3-(5-((4-(3,3-Dimethylbutanoyl)-3-hydroxy-2-methylphenoxy)methyl)-1,2,4-oxadiazol-3-yl)-4-methoxybenzoic acid]: the figures for the EC50 on Human mGlu2 and on Human mGlu3 were 78 nM and 117 nM, respectively.

In the case of `Cc1c(C(=O)O)cccc1-c1noc(COc2ccc(C(=O)CC(C)(C)C)c(O)c2C)n1` [compound 157, 3-(5-((4-(3,3-Dimethylbutanoyl)-3-hydroxy-2-methylphenoxy)methyl)-1,2,4-oxadiazol-3-yl)-2-methylbenzoic acid], the figures for the concentration for a half-maximal effect (EC50) at Human mGlu2 and at Human mGlu3 were 48 nM and 148 nM, respectively.

For the compound `COc1c(C(=O)O)cccc1-c1noc(COc2ccc(C(=O)CC(C)(C)C)c(O)c2C)n1` [compound 158, 3-(5-((4-(3,3-Dimethylbutanoyl)-3-hydroxy-2-methylphenoxy)methyl)-1,2,4-oxadiazol-3-yl)-2-methoxybenzoic acid], the EC50 at Human mGlu2 came to 53 nM; on Human mGlu3, 104 nM.

With `COc1c(C(=O)O)cccc1-c1cnc(COc2ccc(C(=O)CC(C)(C)C)c(O)c2C)nc1` [compound 159, 3-(2-((4-(3,3-Dimethylbutanoyl)-3-hydroxy-2-methylphenoxy)methyl)pyrimidin-5-yl)-2-methoxybenzoic acid], the EC50 at Human mGlu2 turned out to be 44 nM; on Human mGlu3 it was 85 nM.
